Test system: β-catenin mRNA
Assay: TRE-MET HCC mouse pharmacodynamic study (β-catenin mRNA by Taqman in liver and tumor)
Assay type: in vivo
Settings: intravenous, 72 hours; for knockdown of β-catenin mRNA in both liver and tumor tissues: FIGS. 8, 9, 12, 13
Description: The activity LNPs in delivering a β-catenin siRNA (siRNAβ-cat) to hepatocellular carcinoma was evaluated in a mouse hepatocellular carcinoma (HCC) model, named TRE-MET. TRE-MET mice are transgenic mice in an FVB/N genetic background where the human MET transgene is expressed under an hCMV promoter with hepatamerized upstream tet-operators. When TRE-MET mice are crossed with the LAP-tTA line, the double transgenic (TRE-MET/LAP-tTA) mice express MET in a liver-specific manner which can be suppressed by administration of doxycycline. These mice develop HCC at 3 months of age with visually identifiable tumor nodules on the liver surface and the tumors display a diffuse trabecular growth pattern typical for HCC and express the HCC tumor marker alpha-fetoprotein (AFP). In addition, the mutation analysis in the tumor of TRE-MET mice has also identified activating mutations in the beta-catenin gene in approximately 95% of tumors. These features make the TRE-MET HCC mouse model suitable for evaluating LNP-mediated delivery of β-catenin siRNA and the resultant efficacy on tumor growth.
The effect of β-catenin containing LNPs in silencing β-catenin mRNA in both liver and tumor tissues was first evaluated in a pharmacodynamic (PD) study in TRE-MET mice bearing tumors. Different doses of LNPs or a high dose of LNPcontrol siRNA were intravenously administered and 72 hours later, necropsy was performed to collect liver and tumor tissues for the determination of β-catenin mRNA levels by Taqman. […] The KD in tumors ranges from 70% (2 mpk) to about 40% (0.1 or 0.05 mpk).

Row | SMILES | β-catenin mRNA KD in normal liver (0.05 mpk) [%] | β-catenin mRNA KD in normal liver (0.1 mpk) [%] | β-catenin mRNA KD in tumors (0.1 or 0.05 mpk) | β-catenin mRNA KD in tumors (2 mpk) [%] | knockdown of β-catenin mRNA in both liver and tumor tissues | β-catenin mRNA KD in tumors (0.25 mpk) [%]
1 | CCCCCCCCCC(CCCCCCCC1CC1CCCCCCCC)N(C)C [Compound 33, N,N-dimethyl-1-[(1S,2R)-2-octylcyclopropyl]hepladecan-8-amine] | 69 | 88 | about 40% | 70 | robust and dose-dependent knockdown | 
2 | CCCCC/C=C\C/C=C\CCCCCCCCCC(CCCCCCCCC)CCN(C)C (stereo not shown) [Compound 32, (13Z,16Z)—N,N-dimethyl-3-nonyldocosa-13,16-dien-1-amine] | 78 | 76 | 20-30% |  | robust and dose-dependent knockdown | 47

Reference: patent US11413348B2, “Low molecular weight cationic lipids for oligonucleotide delivery” (SIRNA THERAPEUTICS, INC., priority 2010, dated 2022)
